Laboratory results from patent US20040223946A1, “Adhesive treatment for insect and related bites” (Closure Medical Corporation, priority 2003, published 2004).

Test: Observation of the monomer composition about one minute and at least twenty-four hours after preparation
Format: physicochemical
Conditions: 1 wt % in 2 mL 2-octyl cyanoacrylate monomer
Procedure: A 2-octyl cyanoacrylate monomer composition is prepared by adding 1 wt % menthol to 2 mL of 2-octyl cyanoacrylate monomer. The mixture is stirred.
The characteristics of the composition are observed at about one minute after preparation and later at least twenty-four hours after preparation.

CC1CCC(C(C)C)C(O)C1 (stereo not shown) [menthol]
solubility of the additive in 2-octyl cyanoacrylate monomer: soluble in the monomer
